{"source": "paper PMC9822434", "about": "“Estradiol-Based Salicylaldehyde (Thio)Semicarbazones and Their Copper Complexes with Anticancer, Antibacterial and Antioxidant Activities” (Molecules, 2022)", "key": {"DU-145": {"test_system": "DU-145", "assay": "MTT cytotoxicity assay", "format": "cell-based, human", "settings": "Homo sapiens; DU-145, MTT, 24 h incubation time", "method_in_brief": "(§1)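 Cells were exposed 24 h to 0–20 µM (2.5, 5, 10, 15, 20 µM) Cu(II) complexes, ligands or metal salts (equimolar ligand–CuCl2), then 0.5 mg/mL MTT for 1 h at 37 °C. Formazan was dissolved in DMSO and read at 570 nm; viability is relative to untreated control as 100%.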"}, "A549": {"test_system": "A549", "assay": "MTT cytotoxicity assay", "format": "cell-based, human", "settings": "Homo sapiens, 24 h incubation time", "method_in_brief": "as §1"}, "MCF-7 KCR": {"test_system": "MCF-7 KCR", "assay": "MTT cytotoxicity assay", "format": "cell-based, human", "settings": "Homo sapiens, MCF7, 24 h incubation time", "method_in_brief": "as §1"}, "MCF-7": {"test_system": "MCF-7", "assay": "MTT cytotoxicity assay", "format": "cell-based, human", "settings": "Homo sapiens, MCF7; MCF-7, MTT, 24 h incubation time", "method_in_brief": "as §1"}, "E. faecalis ATCC 29212": {"test_system": "E. faecalis ATCC 29212", "assay": "MIC determination", "format": "cell-based, Enterococcus faecalis", "settings": "Enterococcus faecalis, ATCC29212; Gram-positive E. faecalis ATCC 29212; Mueller Hinton Broth", "method_in_brief": "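Broth microdilution in Mueller Hinton Broth, two-fold serial dilutions starting at 100 µM compound (from 10 mM stocks in 90% DMSO). Each well inoculated with a 10^−4 dilution of overnight culture. MIC read per prior lab method.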"}, "[1]": {"assay": "DPPH free radical scavenging assay", "method_in_brief": "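DPPH at 50 µM final mixed with compound (5–50 µM final) in ethanol at 25.0 ± 0.1 °C in tandem cuvette, read spectrophotometrically. Antioxidant activity percentage, IC50 (concentration reducing 50% of DPPH) and Trolox equivalent capacity derived; Trolox as positive control.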"}, "physchem": {"assay": "physchem", "format": "physicochemical", "protocol": "An Orion 710A pH-meter equipped with a Metrohm combined electrode (type 6.0234.100) and a Metrohm 665 Dosimat burette were used for the UV–vis titrations at 25.0 ± 0.1 °C. Ionic strength of 0.10 M (KCl) was used to keep the activity coefficients constant. The titrations were performed with carbonate-free KOH solution of known concentration (0.10 M) with 30% (v/v) DMSO content. […] The average water ionization constant (pKw) is 14.54 ± 0.05 in the 30% (v/v) DMSO/H2O mixture. Argon was always passed over the solutions during the titrations. An Agilent Cary 8454 diode array spectrophotometer was used to record the UV–vis spectra at an interval of 200–800 nm. The path length was 2 cm. Spectrophotometric titrations were performed using a 0.1 M KOH titrant solution with 30% (v/v) DMSO on samples with 30% (v/v) DMSO containing HCl, KCl and the ligand at 20 μM concentration in the pH range 2.0–12.5 in the absence or in the presence of 1 or 0.5 equiv. Cu(II) ions. Proton dissociation constants (Ka) of the TSC ligands, the overall stability constants (β) of the Cu(II) complexes and the UV–vis spectra of the individual species were calculated by the computer program PSEQUAD [41] as was done in our previous works."}, "[2]": {"assay": "direct redox reaction of the Cu(II) complexes with GSH (UV–vis, anaerobic)", "format": "physicochemical", "settings": "Cu(II) complex (25 µM) of the named ligand with GSH (1.25 mM), pH 7.4, anaerobic, 30% (v/v) DMSO/H2O, 25.0 °C", "protocol": "The redox reaction of the Cu(II) complexes with GSH and ascorbic acid was studied at 25.0 ± 0.1 °C, at pH 7.40 (10 mM HEPES with 0.1 M KCl) on an Agilent Cary 8454 diode array spectrophotometer using a special, tightly closed tandem cuvette (Hellma Tandem Cell, 238-QS). The complex and the reducing agent were separated until the reaction was triggered. Both isolated pockets of the tandem cuvette were completely deoxygenated by bubbling argon for 10 min before mixing the reactants. Spectra were recorded before and then immediately after the mixing, and changes were followed till no further absorbance change was observed. The stock solutions of the reducing agents and the complexes were freshly prepared every day.\nDuring the calculations, the absorbance (A)−time (t) curves were fitted and analyzed at the λmax of the complex. (A0 − Afinal) × e ^(−a×t) + Afinal equation was used where A0, Afinal and a parameters were refined and accepted at the minimal value of the weighted sum of squared residuals (difference between the measured and calculated absorbance values) at the given wavelength. Then observed rate constants (kobs) of the redox reaction were obtained from the data points of the simulated absorbance–time curves as the slope of the ln(A/A0) versus t plots."}}}
{"smiles": "C[C@]12CC[C@@H]3c4cc(C=NNC(N)=S)c(O)cc4CC[C@H]3[C@@H]1CCC2O", "note": "(some centres unmarked) [estradiol-TSC, 2-((3,17 Dihydroxy-estra-1,3,5(10)-triene-2-yl)methylene)Hydrazine-1-carbothioamide]", "values": [{"measurement": "IC50", "setting": "DU-145", "result": "> 20", "unit": "µM"}, {"measurement": "IC50", "setting": "A549", "result": "20.5 ± 1.07", "unit": "µM"}, {"measurement": "IC50", "setting": "MCF-7 KCR", "result": "> 20", "unit": "µM"}, {"measurement": "IC50", "setting": "MCF-7", "result": "> 20", "unit": "µM"}, {"measurement": "MIC", "setting": "E. faecalis ATCC 29212", "result": "> 100", "unit": "µM"}, {"measurement": "TEAC (Trolox equivalent antioxidant capacity)", "setting": "[1]; DPPH assay in ethanol, 25 °C", "result": 0.8}, {"measurement": "% Scavenging Effect", "setting": "[1]; DPPH:compound = 1:1 ratio after 30 min, ethanol, 25 °C", "result": 72.0, "unit": "%"}, {"measurement": "IC50", "setting": "[1]; in ethanol, T = 25 °C, cDPPH = 50 µM, ccompound = 5−50 µM", "result": 14.6, "unit": "µM"}, {"measurement": "pKa", "setting": "physchem", "result": "9.23 ± 0.03"}, {"measurement": "kobs", "setting": "[2]", "result": "0.07 ± 0.03", "unit": "min⁻¹"}, {"measurement": "melting point", "result": "229 to 231", "unit": "°C"}]}
